# According to patent US20240156718A1, “TOPICAL COMPOSITION AND USE THEREOF” (BLIS TECHNOLOGIES LIMITED, priority 2021, published 2024):
# Key:
# M. luteus Q24 = assay: Inhibition by potential prebiotics spotted on a Q24 lawn; type: cell-based, Streptococcus salivarius; settings: 20 μL spots, 24 hours at 37° C.; for Suitable to be used in Q24 containing serum/product?: 100% to 0.3% (oils at 100% only); for inhibitory concentration vs Blis Q24: 100% to 0.3%
# Experimental: CABK12 agar plates were split into segments of 6 and […] suspension of M. luteus […] raw ingredient P3. Each of the aqueous potential prebiotic substances to be screened were serially diluted in a range of concentrations from 100% to 0.3% using sterile distilled water. Oil based substances were tested at 100% only. 20 μL of each concentration, of each substance were pipetted into a spot onto one segment of the […]12 agar plate and was incubated for 24 hours at 37° C. 5% CO2 in air.
# EpiDerm tissues [1] = assay: EpiDerm anti-inflammatory effect, cytokine release in response to 0.5% SDS; type: cell-based, human; settings: pre-treatment, day 5 vs day 4
# Experimental: (§1) The maturation of 36 immature EpiDerm tissues was performed as described above. The fully differentiated tissues were numbered from 1-36 and were randomly assigned to receive one of the treatments shown in Table 3. This was done such that each of the 6 combinations of main treatment (PBS, Q24 or vitamin C) and 0.5% SDS exposure treatment (±0.5% SDS) was randomly represented on each of five 6-well cell culture plates. The remaining 6 tissues, which were destined for histology or else to receive 5% SDS, were grouped together on the sixth cell culture plate. Following maturation, the 36 tissues were cultured in the assay medium for 24 h at 37° C. in a 5% CO2 atmosphere, after which the baseline (day 0) conditioned media samples were collected and stored frozen at −80° C. for cytokine measurement. […] The viabilities of the other 33 tissues were assessed using the MTT viability assay.
# (§2) For quantification of IL-1β, IFN-α2, IFN-γ, TNF-α, MCP-1 (CCL2), IL-6, IL-8 (CXCL8), IL-10, IL-12p70, IL-17A, 1L-18, IL-23, and IL-33, bead-based multiplex LEGENDplex™ analysis(LEGENDplex™ Human Inflammation Panel 1 (13-plea); BioLegend, San Diego, CA, USA) was used according to the manufacturer's instructions. The relevance of each of the measured cytokines is described in Table 4. […] Data were analysed via Legendplex V8.0 software (BioLegend) and specified as pg/mL.
# EpiDerm tissues [2] = assay: EpiDerm safety experiment, cytokine levels day 0 and day 4; type: cell-based, human; settings: Blis Q24 1×10^8 CFU/ml or vitamin C 50 μg/mL
# Experimental: Upon receipt, the final development of the immature EpiDerm (EPI-201-4D; MatTekCorporation, Ashland, MA, USA) tissues was completed following the manufacturer's instructions. In brief, the tissues were transferred from the agarose-containing gel on which they were shipped to cell culture plates containing pre-warmed differentiation medium (EPI-201-DM). They were then maintained at 37° C. in a 5% CO2 atmosphere for 4 days, with 2 or […] changes to fresh differentiation medium during that period. Finally, the fully developed EpiDerm tissues were transferred to fresh plates containing standard culture medium (EPI-100-NMM) for use in each experiment.
# as §1, §2
# Blis Q24 = assay: Effect of prebiotics on the growth of Blis Q24 in M17 broth; type: cell-based, Micrococcus luteus; settings: 5% prebiotic in M17 broth
# Experimental: A batch of M17 broth (Difco #218561) was made, excluding the lactose solution, by following the manufacturer's instructions. 50 ml of broth was dispensed into sterile 100 ml Schott bottles and 2.5 g (5%) of each potential prebiotic substance was added and mixed well using a magnetic stirrer and stir plate. The mixtures were autoclaved at 110° C. for 10 minutes and allowed to cool. The suspensions of the prebiotic candidates were prewarmed to 40° C. in order to allow for increased homogenisation of any oil-based components prior to dispensing into the wells. 2 ml of each suspension and an M17 only (control) were pipetted into a sterile 24 well tissue culture plate. A suspension of […] raw ingredient P3 was made in PBS and adjusted to an optical density of 0.125. 100 μl of the suspension was pipetted into each well. Once the suspension was added each well was mixed by aspirating and dispensing the solution 5 times with a 1 ml pipette. Each sample was enumerated at time points 0, 3, 6, 15, 26 and 34 hours using the following method. […] The number of colonies in each spot were then counted using an electronic colony counter and average to give the final result. […] Olive squalene was selected as one of the preferred prebiotics with 3 others that were analysed in combination with olive squalene and compared to the results of the prebiotic candidates alone (FIG. 13).
# [3] = system: skin commensals S. epidermidis #4, S. epidermidis E30, S. hominis ATCC 27844; assay: Prebiotic activity against skin commensals (growth); type: cell-based; settings: FIG. 14
# Experimental: The same method was used as above for Blis Q24 ingredient except the suspensions with optical density of 0.125 were prepared for each of the 3 selected skin commensals.
# The skin commensals selected were: • S. epidermidis #4—Sensitive to Q24 inhibition • S. epidermidis E30—Resistant to Q24 inhibition • S. hominis ATCC 27844—Mixed resistance condition dependent
molecule,measurement,setting,value
"CC(O)C(=O)O (stereo not drawn) [Lactic acid (LA), Lactic acid]",Suitable to be used in Q24 containing serum/product?,M. luteus Q24,No
same,inhibitory concentration vs Blis Q24,M. luteus Q24,> 2.5%
NC(=O)NC1NC(=O)NC1=O (stereo not drawn) [Allantoin],Suitable to be used in Q24 containing serum/product?,M. luteus Q24,Yes
NC(=O)c1cccnc1 [Niacinamide],Suitable to be used in Q24 containing serum/product?,M. luteus Q24,Yes
"O=C1O[C@H]([C@@H](O)CO)C(O)=C1O [Vitamin C (Ascorbic acid), Ascorbic acid]",IL-6 released in response to 0.5% SDS,EpiDerm tissues [1],slight increase
same,"IL-6 levels, day 4 vs day 0",EpiDerm tissues [2]; daily for 4 days,slight but significant increase
same,"IL-8 levels, day 4 vs day 0",EpiDerm tissues [2]; daily for 4 days,unchanged
same,"IL-18 levels, day 4 vs day 0",EpiDerm tissues [2]; no significant differences,trend for lower values
same,Suitable to be used in Q24 containing serum/product?,M. luteus Q24,Yes
"CC1=C(/C=C/C(C)=C/C=C/C(C)=C/CO)C(C)(C)CCC1 [Retinol (Vitamin A), Retinol]",Suitable to be used in Q24 containing serum/product?,M. luteus Q24,Yes
OC[C@@H](O)[C@H](O)[C@@H](O)CO [Xylitol],growth of Q24 compared to the control,Blis Q24,detrimental to the live Q24 cell count at 24 hours
same,Suitable to be used in Q24 containing serum/product?,M. luteus Q24,Yes
"O=C(O)c1ccccc1O [Salicylic acid (SA), Salicylic acid]",Suitable to be used in Q24 containing serum/product?,M. luteus Q24,No
same,inhibitory concentration vs Blis Q24,M. luteus Q24,> 5%
Hyaluronic acid,Suitable to be used in Q24 containing serum/product?,M. luteus Q24,Yes
"Cc1c(C)c2c(c(C)c1O)CC[C@@](C)(CCC[C@H](C)CCC[C@H](C)CCCC(C)C)O2 [Vitamin E, D Alpha Tocopherol 1000IU, D Alpha Tocopherol]",Suitable to be used in Q24 containing serum/product?,M. luteus Q24,Yes
CC(C)=CCC/C(C)=C/CC/C(C)=C/CC/C=C(\C)CC/C=C(\C)CCC=C(C)C [Olive Squalene],growth of skin commensals compared to control media,[3],do not offer any advantage
same,Suitable to be used in Q24 containing serum/product?,M. luteus Q24,Yes
